From ChEMBL document CHEMBL1201862, “PubChem BioAssay data set” (2004)
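Where inhibition never reached the appropriate level, the endpoint shown equals the highest concentration tested. Otherwise, values were interpolated linearly from a five-concentration, 48-hour dose response in 96-well plates. GI50 marks 50% less growth.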 Active and inactive are the calls of the source. No stated cut-off is given here; in the data, active = GI50 up to about 1.1 µM and inactive = higher.

Tests used:
Assay in all cases: DTP human tumour cell line panel, 48 h
NCI-H522 = system: NCI-H522
OVCAR-8 = system: OVCAR-8
MOLT-4 = system: MOLT-4
UACC-257 = system: UACC-257
A549 = system: A549
IGROV-1 = system: IGROV-1
ACHN = system: ACHN
UO-31 = system: UO-31
SF-295 = system: SF-295
MDA-MB-435 = system: MDA-MB-435
NCI-H226 = system: NCI-H226
OVCAR-3 = system: OVCAR-3
SNB-19 = system: SNB-19
Malme-3M = system: Malme-3M
TK-10 = system: TK-10
HCT-116 = system: HCT-116
LOX IMVI = system: LOX IMVI
UACC-62 = system: UACC-62
OVCAR-5 = system: OVCAR-5
SR = system: SR

| SMILES | GI50 (NCI-H522) | GI50 (OVCAR-8) | GI50 (MOLT-4) | GI50 (UACC-257) | GI50 (A549) | GI50 (IGROV-1) | GI50 (ACHN) | GI50 (UO-31) | GI50 (SF-295) | GI50 (MDA-MB-435) | GI50 (NCI-H226) | GI50 (OVCAR-3) | GI50 (SNB-19) | GI50 (Malme-3M) | GI50 (TK-10) | GI50 (HCT-116) | GI50 (LOX IMVI) | GI50 (UACC-62) | GI50 (OVCAR-5) | GI50 (SR) |
| --- | --- | --- | --- | --- | --- | --- | --- | --- | --- | --- | --- | --- | --- | --- | --- | --- | --- | --- | --- | --- |
| CCc1n[nH]c(=O)n1N=C(c1ccccc1)c1ccccc1 | > 100 µM (inactive) | > 100 µM (inactive) | > 100 µM (inactive) | > 100 µM (inactive) | > 100 µM (inactive) | > 100 µM (inactive) | > 100 µM (inactive) | > 100 µM (inactive) | > 100 µM (inactive) | > 100 µM (inactive) | > 100 µM (inactive) | > 100 µM (inactive) | > 100 µM (inactive) | > 100 µM (inactive) | > 100 µM (inactive) | > 100 µM (inactive) | > 100 µM (inactive) | > 100 µM (inactive) | 58.1 µM (inactive) | – |
| O=c1c(C(c2ccco2)c2c(O)oc3ccccc3c2=O)c(O)oc2ccccc12 | 19.5 µM (inactive) | 27.4 µM (inactive) | 25.6 µM (inactive) | 23.4 µM (inactive) | – | 17.8 µM (inactive) | 27.1 µM (inactive) | 25.7 µM (inactive) | – | 31.6 µM (inactive) | 64.9 µM (inactive) | 41.6 µM (inactive) | 44.6 µM (inactive) | 20.5 µM (inactive) | 26.7 µM (inactive) | 78 µM (inactive) | 28.2 µM (inactive) | 25.9 µM (inactive) | – | – |
| CC(O)CCNC(=O)Nc1c(C(F)(F)F)cc(-c2ccccc2)[nH]c1=O (stereo not drawn) | > 100 µM (inactive) | > 100 µM (inactive) | > 100 µM (inactive) | > 100 µM (inactive) | > 100 µM (inactive) | > 100 µM (inactive) | > 100 µM (inactive) | > 100 µM (inactive) | > 100 µM (inactive) | > 100 µM (inactive) | > 100 µM (inactive) | > 100 µM (inactive) | > 100 µM (inactive) | 47.3 µM (inactive) | > 100 µM (inactive) | > 100 µM (inactive) | > 100 µM (inactive) | > 100 µM (inactive) | > 100 µM (inactive) | – |
| COc1ccc2oc3c(C)cc4c(OC)nnc(OC)c4c3c2c1 | 6.76 µM (inactive) | 6.65 µM (inactive) | 2.81 µM (inactive) | 42 µM (inactive) | 9.57 µM (inactive) | – | 5.05 µM (inactive) | 6.93 µM (inactive) | 8.51 µM (inactive) | 25.4 µM (inactive) | 30.8 µM (inactive) | > 100 µM (inactive) | 13.6 µM (inactive) | 9.95 µM (inactive) | 16.9 µM (inactive) | 2.17 µM (inactive) | 5.55 µM (inactive) | 9.31 µM (inactive) | > 100 µM (inactive) | – |
| C=C(C(=O)OC)[C@H]1CC/C(C)=C/CC/C(C)=C/CC[C@@]2(C)O[C@@H]2C1 | 18.2 µM (inactive) | 13.8 µM (inactive) | 15.8 µM (inactive) | 23.8 µM (inactive) | 14.9 µM (inactive) | 16 µM (inactive) | 19.8 µM (inactive) | 19 µM (inactive) | 11.5 µM (inactive) | 22.9 µM (inactive) | 19.9 µM (inactive) | 17.7 µM (inactive) | > 100 µM (inactive) | 25.1 µM (inactive) | 21.5 µM (inactive) | 15.4 µM (inactive) | 15.5 µM (inactive) | 11.9 µM (inactive) | 23.4 µM (inactive) | – |
| COc1ccc(/C=C2\CCc3cc(OC)c(OC)cc3C2=O)cc1 | – | > 10 µM (inactive) | > 10 µM (inactive) | > 10 µM (inactive) | > 10 µM (inactive) | > 10 µM (inactive) | > 10 µM (inactive) | > 10 µM (inactive) | > 10 µM (inactive) | > 10 µM (inactive) | > 10 µM (inactive) | > 10 µM (inactive) | > 10 µM (inactive) | > 10 µM (inactive) | > 10 µM (inactive) | > 10 µM (inactive) | > 10 µM (inactive) | > 10 µM (inactive) | > 10 µM (inactive) | > 10 µM (inactive) |
| COc1nncc2[nH]c(-c3ccccc3)cc12 | – | 92.5 µM (inactive) | 0.0652 µM (active) | 71.1 µM (inactive) | 65.3 µM (inactive) | > 100 µM (inactive) | 54 µM (inactive) | 51.2 µM (inactive) | 82.4 µM (inactive) | 73.3 µM (inactive) | 80.9 µM (inactive) | 83.2 µM (inactive) | > 100 µM (inactive) | > 100 µM (inactive) | 53.1 µM (inactive) | 50.8 µM (inactive) | 65 µM (inactive) | 42.3 µM (inactive) | > 100 µM (inactive) | 37.5 µM (inactive) |
| COc1ccc([N+](=O)[O-])c2c(NCCCN(C)C)ccnc12 | 1.46 µM (inactive) | 10.8 µM (inactive) | 1.8 µM (inactive) | 3.26 µM (inactive) | 3.37 µM (inactive) | 1.66 µM (inactive) | 2.86 µM (inactive) | 4.39 µM (inactive) | 3.61 µM (inactive) | 9.1 µM (inactive) | 7.31 µM (inactive) | 2.39 µM (inactive) | 8.3 µM (inactive) | 2.43 µM (inactive) | 10.2 µM (inactive) | 3.77 µM (inactive) | 6.71 µM (inactive) | 3.61 µM (inactive) | 5.9 µM (inactive) | – |
| O=C(CON1C(=O)c2ccccc2C1=O)c1ccccc1 | 17.7 µM (inactive) | > 100 µM (inactive) | – | 34.8 µM (inactive) | > 100 µM (inactive) | > 100 µM (inactive) | > 100 µM (inactive) | 21.3 µM (inactive) | > 100 µM (inactive) | 42 µM (inactive) | > 100 µM (inactive) | 49.9 µM (inactive) | > 100 µM (inactive) | 21.1 µM (inactive) | 20.7 µM (inactive) | 36.2 µM (inactive) | 35.6 µM (inactive) | > 100 µM (inactive) | > 100 µM (inactive) | – |
| COc1ccc2c(c1)-c1[nH]c3ccccc3c1CC2 | 6.31 µM (inactive) | 12.6 µM (inactive) | 12.1 µM (inactive) | 16.3 µM (inactive) | 15.2 µM (inactive) | 3.9 µM (inactive) | 18.1 µM (inactive) | 15.5 µM (inactive) | 14.2 µM (inactive) | 16.6 µM (inactive) | 13.3 µM (inactive) | 18.2 µM (inactive) | 15.7 µM (inactive) | 12.4 µM (inactive) | 16.1 µM (inactive) | 16.9 µM (inactive) | 18.2 µM (inactive) | 15.6 µM (inactive) | 15.7 µM (inactive) | – |
| O=c1[nH]c2ccc(CC(=S)N3CCN(c4ccccc4)CC3)cc2s1 | – | 14.3 µM (inactive) | 16.5 µM (inactive) | > 100 µM (inactive) | – | 9.16 µM (inactive) | 18 µM (inactive) | 0.063 µM (active) | 12.9 µM (inactive) | 72.8 µM (inactive) | 14.3 µM (inactive) | 23.4 µM (inactive) | > 100 µM (inactive) | 13.5 µM (inactive) | 36.6 µM (inactive) | 33.9 µM (inactive) | 67 µM (inactive) | 62.7 µM (inactive) | 15.7 µM (inactive) | 19.9 µM (inactive) |
